Data reported in patent publication US8697911B2, “Rho kinase inhibitors” (Boehringer Ingelheim International GmbH, priority 2010, dated 2014).

What follows are molecules tested against T1, ROCKII (1-543) (Homo sapiens (Human), UniProt O75116) (assay: Luciferin-Luciferase Assay (Assay 1)). Details: luciferin-luciferase residual ATP; 750 nM ATP, 7.5 nM kinase.
Format: biochemical
Description: 1. Luciferin-Luciferase Assay
The activity of ROCKII (1-543) kinase is measured utilizing Cambrex PKLight ATP Detection Reagent, a homogeneous assay technology using luciferin-luciferase to quantify residual ATP. The assay is performed in 384-well low-volume, white, non-binding surface microtiter plates (Corning). The assay buffer is 25 mM HEPES, pH 7.5, 10 mM MgCl2, 50 mM KCl, 0.2% BSA, 0.01% CHAPS, 100 μM Na3VO4 and 0.5 mM DTT. Test compounds, dissolved in neat DMSO at 500 μg/mL, are serially diluted for dose response for a final starting concentration of 3 μg/mL in 1% DMSO of assay buffer. ROCKII (1-543) (62,408 Da) is diluted in assay buffer to a final concentration of 7.5 nM in a total volume of 15 μL. Positive controls are reaction mixtures containing no test compound; negative controls (blanks) are reaction mixtures containing no kinase. After 15 minutes of pre-incubation of the test compounds with the kinase, a mixture of ATP and peptide substrate ([…]) in assay buffer is added to each well for a final concentration of 750 nM ATP and 500 nM peptide, respectively. After 90 minutes of incubation of the kinase reaction at 28° C. temperature, 10 μL of PKLight ATP Detection Reagent (warmed to room temperature previously) is added to each well. The assay plate is incubated at room temperature for additional 15 minutes and then read on an Analyst in luminescence mode. Dose-response experiments for each of the test compounds are conducted in quadruplet. IC50 values of test compounds represent 50% response of the positive control from the dose-response curve.
Target sequence in this assay (O75116 1-543): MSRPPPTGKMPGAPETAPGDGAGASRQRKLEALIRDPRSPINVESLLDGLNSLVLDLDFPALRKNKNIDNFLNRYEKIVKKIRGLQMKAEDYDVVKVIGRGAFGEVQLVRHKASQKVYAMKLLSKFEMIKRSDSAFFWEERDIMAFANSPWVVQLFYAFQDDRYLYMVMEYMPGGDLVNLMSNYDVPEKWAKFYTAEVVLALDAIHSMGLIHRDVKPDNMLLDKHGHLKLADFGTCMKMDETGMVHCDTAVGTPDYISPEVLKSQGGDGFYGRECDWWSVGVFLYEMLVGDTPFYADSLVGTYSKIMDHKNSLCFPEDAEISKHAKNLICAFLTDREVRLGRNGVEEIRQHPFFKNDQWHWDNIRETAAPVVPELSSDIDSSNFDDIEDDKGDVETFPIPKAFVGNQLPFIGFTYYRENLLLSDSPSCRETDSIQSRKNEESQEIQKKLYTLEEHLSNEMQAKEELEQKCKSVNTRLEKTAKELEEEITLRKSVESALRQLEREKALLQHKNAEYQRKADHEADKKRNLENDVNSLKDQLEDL

Row | Structure (SMILES) | IC50
1 | CN1CCc2ccc(NC(=O)c3cccc(CNC(=O)c4cn5ccc(C#N)cc5n4)c3)cc2C1 [compound 18] | 19.3 nM
2 | N[C@@H]1CCc2nc(NC(=O)c3cccc(CNC(=O)c4ccc(-c5csnn5)cc4)c3)sc2C1 [compound 24] | 14.3 nM
3 | CN1CCc2ccc(NC(=O)c3cccc(CNC(=O)c4csc(-c5ccncc5)n4)c3)cc2C1 [compound 33] | 33 nM
4 | Cc1nnnn1-c1ccc(C(=O)NCc2cccc(C(=O)Nc3ccc4c(c3)CN(C)CC4)c2)cc1 [compound 37] | 43.5 nM
5 | CN1CCc2ccc(NC(=O)c3cccc(CNC(=O)c4cn5cc(C#N)ccc5n4)c3)cc2C1 [compound 48] | 35.5 nM
6 | CN1CCc2ccc(NC(=O)c3cccc(CNC(=O)c4cccc(-c5cccnc5)c4)c3)cc2C1 [compound 53] | 28 nM
7 | CN1CCc2ccc(NC(=O)c3cccc(CNC(=O)c4ccc(-c5cccnc5)s4)c3)cc2C1 [compound 62, 5-pyridin-3-yl-thiophene-2-carboxylic acid 3-(2-methyl-1,2,3,4-tetrahydro-isoquinolin-7-ylcarbamoyl)-benzylamide] | 18.5 nM
8 | Cc1ncc(-c2ccc(C(=O)NCc3cccc(C(=O)Nc4ccc5c(c4)CN(C)CC5)c3)s2)o1 [compound 68] | 64.2 nM

The molecules below were run against T1, ROCKII (1-543) (assay: IMAP Assay (Assay 2)). Details: IMAP fluorescence polarization; 100 μM ATP, 1 nM kinase.
Format: biochemical
Description: This assay is performed using FAM S6 substrate peptide (Catalogue #R7184) and IMAP FP Screening Express Kit detection reagents from Molecular Devices (Sunnyvale, Calif.) in IMAP kinase reaction buffer (Tris-HCl, pH 7.2, 10 mM MgCl2, 0.05% NaN3, 0.1% phosphate-free BSA) containing 1 mM DTT. Test compounds dissolved in neat DMSO at 0.3 mg/mL are serially diluted 1 to 3 for concentration response in 100% DMSO. The DMSO serial dilutions are further diluted 33.33-fold in kinase reaction buffer, and 10 μL of this buffer dilution is transferred to Corning black 96-well half area NBS plates for a final top concentration of 3 μg/mL in 1% DMSO. 10 μL aliquot of 3 nM ROCKII (1-543) diluted in kinase reaction buffer is added to each assay well for a final concentration of 1 nM kinase. 10 μL of a mixture of 600 nM FAM S6 peptide and 300 μM ATP diluted in kinase reaction buffer is added to each well for a final concentration of 200 nM peptide and 100 μM ATP. The kinase reaction mixture is incubated for 60 minutes at room temperature. Positive controls are reaction mixtures containing no test compound and negative controls (blanks) are reaction mixtures containing no kinase. The kinase reaction is stopped by addition of 60 μL IMAP progressive binding reagent (Catalog #R7284) diluted 400-fold in 1× Binding buffer A. After 30 min of incubation at room temperature, the plates are read for fluorescence polarization on Analyst Plate Reader using Ex 485 nm, Em 530 nm, and FL 505 dichroic minor. The mP signals are converted to percent of control (POC) values using the formula: POC=100*(Signal−BCTRL)÷(PCTRL−BCTRL)
Where Signal is the test well signal, BCTRL is the average of background (negative control) well signals on the plate and PCTRL is the average of positive control well signals on the plate. For the concentration-responsive compounds, POC as a function of test compound concentration is fitted to a 4-parameter logistic equation of the form: Y=A+(B−A)/[1+(x/C)D]
Where A, B, C, and D are fitted parameters (parameter B is fixed at zero POC), and x and y are the independent and dependent variables, respectively. The IC50 is determined as the inflection point parameter, C.
Target sequence in this assay (O75116 1-543, species assumed): as the sequence (O75116 1-543) above

Row | Structure (SMILES) | IC50
9 | CN1CCc2nc(NC(=O)c3cccc(CNC(=O)c4ccc(-n5ccnc5)cc4)c3)sc2C1 [compound 2] | 1.9 nM
10 | CN1CCc2nc(NC(=O)c3cccc(CNC(=O)c4ccc(-c5cnco5)cc4)c3)sc2C1 [compound 12] | 0.21 nM
11 | CN1CCc2nc(NC(=O)c3cccc(CNC(=O)c4ccc5cc(O)ccc5c4)c3)sc2C1 [compound 20] | 0.39 nM
12 | N[C@@H]1CCc2nc(NC(=O)c3cccc(CNC(=O)c4csc(-c5ccncc5)n4)c3)sc2C1 [compound 32] | 4.8 nM
13 | CN1CCc2nc(NC(=O)c3cccc(CNC(=O)c4ccc(-c5ccncc5)cc4)c3)sc2C1 [compound 56] | 0.26 nM
14 | CN1CCc2ccc(NC(=O)c3cccc(CNC(=O)c4ccc(-c5ccncc5)s4)c3)cc2C1 [compound 70] | 0.25 nM
15 | CN1CCc2ccc(NC(=O)c3cccc(CNC(=O)c4ccc(-c5cn[nH]c5)s4)c3)cc2C1 [compound 78, 5-(1H-pyrazol-4-yl)-thiophene-2-carboxylic acid 3-(2-methyl-1,2,3,4-tetrahydro-isoquinolin-7-ylcarbamoyl)-benzylamide] | 0.17 nM
16 | CN1CCc2ccc(NC(=O)c3cccc(CNC(=O)c4cc5ccc(C(N)=O)cc5n4C)c3)cc2C1 [compound 84] | 0.26 nM
17 | CN(C)[C@H]1CCc2nc(NC(=O)c3cccc(CNC(=O)c4cn5ccc(C#N)cc5n4)c3)sc2C1 [compound 98] | 0.27 nM
18 | Cc1nnnn1-c1ccc(C(=O)NCc2cccc(C(=O)Nc3nc4c(s3)C[C@@H](N(C)C)CC4)c2)cc1 [compound 104] | 0.43 nM
19 | CN(C)[C@H]1CCc2nc(NC(=O)c3cccc(CNC(=O)c4ccc(-c5ccncc5)cc4)c3)sc2C1 [compound 106] | 0.22 nM
20 | CN(C)[C@H]1CCc2nc(NC(=O)c3cccc(CNC(=O)c4csc(-c5cccnc5)n4)c3)sc2C1 [compound 108] | 0.32 nM
21 | CN1CCc2nc(NC(=O)c3cccc(CNC(=O)c4ccc(-c5ccncc5)s4)c3)sc2C1 [compound 112] | 0.18 nM
22 | CN1CCc2nc(NC(=O)c3cccc(CNC(=O)c4ccc(-c5cnco5)s4)c3)sc2C1 [compound 114] | 0.45 nM
23 | CN1CCc2nc(NC(=O)c3cccc(CNC(=O)c4ccc(-c5cn[nH]c5)s4)c3)sc2C1 [compound 120] | 0.77 nM
24 | CN(C)[C@H]1CCc2nc(NC(=O)c3cccc(CNC(=O)c4ccc(-c5ccncc5)s4)c3)sc2C1 [compound 126] | 0.27 nM
25 | CN(C)[C@H]1CCc2nc(NC(=O)c3cccc(CNC(=O)c4ccc(-c5cnco5)s4)c3)sc2C1 [compound 128] | 0.37 nM
26 | CN(C)[C@H]1CCc2nc(NC(=O)c3cccc(CNC(=O)c4ccc(-c5cn[nH]c5)s4)c3)sc2C1 [compound 130] | 0.22 nM
27 | CN(C)[C@H]1CCc2nc(NC(=O)c3cccc(CNC(=O)c4cccc(-c5cn[nH]c5)c4)c3)sc2C1 [compound 132] | 0.32 nM
28 | CN(C)[C@H]1CCc2nc(NC(=O)c3cccc(CNC(=O)c4ccc(-n5ccnc5)cc4)c3)sc2C1 [compound 134] | 0.24 nM

Row | Structure (SMILES) | IC50
29 | CN(C)[C@H]1CCc2nc(NC(=O)c3cccc(CNC(=O)c4ccc(-c5cnco5)cc4)c3)sc2C1 [compound 136] | 0.2 nM
30 | CN(C)[C@H]1CCc2nc(NC(=O)c3cccc(CNC(=O)c4nnn(-c5nonc5N)c4-c4ccccc4)c3)sc2C1 [compound 138] | 0.21 nM
31 | CN(C)[C@H]1CCc2nc(NC(=O)c3cccc(CNC(=O)c4csc(-c5ccncc5)n4)c3)sc2C1 [compound 140] | 0.87 nM
32 | Cc1c(C(=O)NCc2cccc(C(=O)Nc3nc4c(s3)C[C@@H](N(C)C)CC4)c2)nnn1-c1nonc1N [compound 142] | 0.33 nM
33 | O=C(Nc1nc2c(s1)C[C@@H](N1CCOCC1)CC2)c1cccc(CNC(=O)c2csc(-c3cccnc3)n2)c1 [compound 146] | 0.73 nM
34 | N#Cc1ccn2cc(C(=O)NCc3cccc(C(=O)Nc4nc5c(s4)C[C@@H](N4CCOCC4)CC5)c3)nc2c1 [compound 148] | 0.52 nM
35 | Nc1nonc1-n1nnc(C(=O)NCc2cccc(C(=O)Nc3nc4c(s3)C[C@@H](N3CCOCC3)CC4)c2)c1-c1ccccc1 [compound 150] | 2.65 nM
36 | O=C(NCc1cccc(C(=O)Nc2nc3c(s2)C[C@@H](N2CCOCC2)CC3)c1)c1ccc(-c2cnco2)cc1 [compound 162] | 0.43 nM
37 | O=C(Nc1nc2c(s1)C[C@@H](N1CCOCC1)CC2)c1cccc(CNC(=O)c2csc(-c3ccncc3)n2)c1 [compound 164] | 0.93 nM
38 | O=C(Nc1nc2c(s1)C[C@@H](N1CCOCC1)CC2)c1cccc(CNC(=O)c2cc(-c3ccncc3)[nH]n2)c1 [compound 166] | 0.34 nM
39 | Cc1nc(-c2ccncc2)sc1C(=O)NCc1cccc(C(=O)Nc2nc3c(s2)C[C@@H](N2CCOCC2)CC3)c1 [compound 168] | 0.37 nM
40 | O=C(NCc1cccc(C(=O)Nc2nc3c(s2)C[C@@H](N2CCOCC2)CC3)c1)c1cccc(-c2cn[nH]c2)c1 [compound 170] | 0.41 nM
41 | O=C(NCc1cccc(C(=O)Nc2nc3c(s2)C[C@@H](N2CCOCC2)CC3)c1)c1ccc(-n2ccnc2)cc1 [compound 172] | 0.38 nM
42 | Cc1nnnn1-c1ccc(C(=O)NCc2cccc(C(=O)Nc3nc4c(s3)C[C@@H](N3CCOCC3)CC4)c2)cc1 [compound 174] | 0.35 nM
43 | N#Cc1ccc2cc(C(=O)NCc3cccc(C(=O)Nc4nc5c(s4)C[C@@H](N4CCOCC4)CC5)c3)[nH]c2c1 [compound 176] | 0.87 nM
44 | CN1CCc2ccc(NC(=O)c3cccc(CNC(=O)N4CCc5c(C#N)cccc54)c3)cc2C1 [compound 201, 4-cyano-2,3-dihydro-indole-1-carboxylic acid 3-(2-methyl-1,2,3,4-tetrahydro-isoquinolin-7-ylcarbamoyl)-benzylamide] | 34 nM
45 | CN1CCc2ccc(NC(=O)c3cccc(CNC(=O)c4nc(-c5cccnc5)cs4)c3)cc2C1 [compound 202] | 72 nM
46 | Cc1nc(-c2ccncc2)sc1C(=O)NCc1cccc(C(=O)Nc2nc3c(s2)C[C@@H](N(C)C)CC3)c1 [compound 205] | 0.25 nM
47 | CN(C)[C@H]1CCc2nc(NC(=O)c3cccc(CNC(=O)c4cc(-c5ccncc5)[nH]n4)c3)sc2C1 [compound 207] | 0.2 nM
48 | CN1CCc2nc(NC(=O)c3cccc(CNC(=O)c4cn5cc(C(N)=O)ccc5n4)c3)sc2C1 [compound 209] | 3.7 nM
